Target: JAK1 (Homo sapiens (Human), UniProt P23458)
Assay: Analysis of JAK1 activity inhibition ability (ADP-Glo Kinase Assay)
Format: biochemical
Details: JAK1 enzyme, ADP-Glo luminescence, ATP 250 uM, IRS-itide substrate, 30° C. 40 minutes; read-out: IC50
Description: Test Example 1: Analysis of JAK1 Activity Inhibition Ability of Compound of Formula 1 (ADP-Glo™ Kinase Assay)
A JAK inhibition ability of a compound according to the present invention was identified as follows.
A control material and a test material were prepared for each concentration, in such a way that they were diluted by means of DMSO. At the same time, ATP (250 uM) and JAK substrate (JAK1, IRS-itide 40 ng/mL) were prepared, in such a way that they were diluted by means of kinase buffer (40 mM Tris-HCl pH 7.5, 20 mM MgCl2, 0.5 mg/mL BSA, 50 uM DTT).
A test drug for each concentration, substrate, ATP and JAK enzyme were mixed in an eppendorf tube, and reacted in a 30° C. incubator for 40 minutes.
ADP-Glo™ reagent contained in ADP-Glo™ Kinase Enzyme System (Promega, USA, V9571) was added into each eppendorf tube, and reacted in a 30° C. incubator for 40 minutes. A kinase detection reagent contained in ADP-Go™ Kinase Enzyme System was inserted into the eppendorf tube, then an integration time was set to 1 second by using Wallac Victor 2™, then luminescence was measured, and then JAKs phosphorylation inhibition ability of the test material was analyzed. The concentration of the compound, which causes 50% of the JAK enzyme activity inhibition in comparison With the control group, was determined as IC50 (nM) of an inhibitor, wherein the results thereof are shown in a following table 1.

Sequence of JAK1 (P23458 whole entry): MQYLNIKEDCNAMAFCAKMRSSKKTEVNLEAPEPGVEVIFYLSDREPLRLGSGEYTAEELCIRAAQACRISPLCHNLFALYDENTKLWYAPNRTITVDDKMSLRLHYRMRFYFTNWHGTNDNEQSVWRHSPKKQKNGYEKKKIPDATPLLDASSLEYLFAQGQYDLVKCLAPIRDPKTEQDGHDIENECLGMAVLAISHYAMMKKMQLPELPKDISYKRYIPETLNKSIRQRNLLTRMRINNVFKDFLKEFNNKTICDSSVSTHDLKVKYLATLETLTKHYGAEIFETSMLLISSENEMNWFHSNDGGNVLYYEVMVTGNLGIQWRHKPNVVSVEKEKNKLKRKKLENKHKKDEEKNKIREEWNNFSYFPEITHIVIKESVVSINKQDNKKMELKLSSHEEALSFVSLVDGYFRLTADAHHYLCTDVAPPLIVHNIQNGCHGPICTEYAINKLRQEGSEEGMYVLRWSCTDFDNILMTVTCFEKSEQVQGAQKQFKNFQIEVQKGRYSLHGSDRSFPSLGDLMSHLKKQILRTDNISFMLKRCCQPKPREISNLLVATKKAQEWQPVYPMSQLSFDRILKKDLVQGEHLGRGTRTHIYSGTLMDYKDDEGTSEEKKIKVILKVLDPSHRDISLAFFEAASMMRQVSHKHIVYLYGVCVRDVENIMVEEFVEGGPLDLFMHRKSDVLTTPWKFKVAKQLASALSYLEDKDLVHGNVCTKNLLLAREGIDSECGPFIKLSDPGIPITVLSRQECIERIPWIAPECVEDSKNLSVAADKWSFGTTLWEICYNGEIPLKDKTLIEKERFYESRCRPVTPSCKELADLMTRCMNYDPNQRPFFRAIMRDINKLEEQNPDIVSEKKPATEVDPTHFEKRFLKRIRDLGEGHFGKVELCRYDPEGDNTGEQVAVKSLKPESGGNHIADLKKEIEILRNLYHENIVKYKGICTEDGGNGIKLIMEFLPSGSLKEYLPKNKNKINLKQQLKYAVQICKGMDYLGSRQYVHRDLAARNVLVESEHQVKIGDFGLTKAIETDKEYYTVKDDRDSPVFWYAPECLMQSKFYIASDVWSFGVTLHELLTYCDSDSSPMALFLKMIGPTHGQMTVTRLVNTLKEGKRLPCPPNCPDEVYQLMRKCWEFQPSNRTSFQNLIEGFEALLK

| IC50 [nM] | Structure (SMILES) |
| --- | --- |
| > 200 | CCS(=O)(=O)Nc1ccc(-c2cc(NC(=O)C3CC3)nc3c2ccn3CC#N)cc1F [Example 62, N-(1-(cyanomethyl)-4-(4-(ethylsulfonamido)-3-fluorophenyl)-1H-pyrrolo[2,3-b]pyridin-6-yl)cyclopropanecarboxamide] |
| < 20 | CCCS(=O)(=O)Nc1ccc(-c2cc(NC(=O)C3CC3)nc3[nH]ccc23)cc1F [Example 66, N-(4-(3-fluoro-4-(propylsulfonamido)phenyl)-1H-pyrrolo[2,3-b]pyridin-6-yl)cyclopropanecarboxamide] |
| < 20 | CCCCS(=O)(=O)Nc1ccc(-c2cc(NC(=O)C3CC3)nc3[nH]ccc23)cc1F [Example 67, N-(4-(4-(butylsulfonamido)-3-fluorophenyl)-1H-pyrrolo[2,3-b]pyridin-6-yl)cyclopropanecarboxamide] |
| 20 to 200 | O=C(Nc1cc(-c2ccc(NS(=O)(=O)CC3CCCCC3)c(F)c2)c2cc[nH]c2n1)C1CC1 [Example 70, N-(4-(4-((cyclohexylmethyl)sulfonamido)-3-fluorophenyl)-1H-pyrrolo[2,3-b]pyridin-6-yl)cyclopropanecarboxamide] |
| < 20 | C=CCS(=O)(=O)Nc1ccc(-c2cc(NC(=O)C3CC3)nc3[nH]ccc23)cc1F [Example 71, N-(4-(4-(allylsulfonamido)-3-fluorophenyl)-1H-pyrrolo[2,3-b]pyridin-6-yl)cyclopropanecarboxamide] |
| < 20 | CC(C)CS(=O)(=O)Nc1ccc(-c2cc(NC(=O)C3CC3)nc3[nH]ccc23)cc1F [Example 75, N-(4-(3-fluoro-4-((2-methylpropyl)sulfonamido)phenyl)-1H-pyrrolo[2,3-b]pyridin-6-yl)cyclopropanecarboxamide] |
| < 20 | O=C(Nc1cc(-c2ccc(NS(=O)(=O)C3CCC3)c(F)c2)c2cc[nH]c2n1)C1CC1 [Example 78, N-(4-(4-(cyclobutanesulfonamido)-3-fluorophenyl)-1H-pyrrolo[2,3-b]pyridin-6-yl)cyclopropanecarboxamide] |
| < 20 | CC(C)(C)CS(=O)(=O)Nc1ccc(-c2cc(NC(=O)C3CC3)nc3[nH]ccc23)cc1F [Example 79, N-(4-(4-((2,2-dimethylpropyl)sulfonamido)-3-fluorophenyl)-1H-pyrrolo[2,3-b]pyridin-6-yl)cyclopropanecarboxamide] |
| < 20 | O=C(Nc1cc(-c2ccc(NS(=O)(=O)CC3CC3)c(F)c2)c2cc[nH]c2n1)C1CC1 [Example 80, N-(4-(4-((cyclopropylmethyl)sulfonamido)-3-fluorophenyl)-1H-pyrrolo[2,3-b]pyridin-6-yl)cyclopropanecarboxamide] |
| 20 to 200 | CCS(=O)(=O)Nc1c(F)cc(-c2cc(NC(=O)C3CC3)nc3[nH]ccc23)cc1F [Example 81, N-(4-(4-(ethylsulfonamido)-3,5-difluorophenyl)-1H-pyrrolo[2,3-b]pyridin-6-yl)cyclopropanecarboxamide] |
| 20 to 200 | CCCS(=O)(=O)Nc1c(F)cc(-c2cc(NC(=O)C3CC3)nc3[nH]ccc23)cc1F [Example 82, N-(4-(3,5-difluoro-4-(propylsulfonamido)phenyl)-1H-pyrrolo[2,3-b]pyridin-6-yl)cyclopropanecarboxamide] |
| 20 to 200 | CC(C)(C#N)CCS(=O)(=O)Nc1ccc(-c2cc(NC(=O)C3CC3)nc3[nH]ccc23)cc1F [Example 87, N-(4-(4-((3-cyano-3-methylbutyl)sulfonamido)-3-fluorophenyl)-1H-pyrrolo[2,3-b]pyridin-6-yl)cyclopropanecarboxamide] |

The remaining lines, values behind:

| Structure (SMILES) | IC50 [nM] |
| --- | --- |
| CCCn1ccc2c(-c3ccc(NS(=O)(=O)CC)c(F)c3)cc(NC(=O)C3CC3)nc21 [Example 61, N-(4-(4-(ethylsulfonamido)-3-fluorophenyl)-1-propyl-1H-pyrrolo[2,3-b]pyridin-6-yl)cyclopropanecarboxamide] | > 200 |
| CCCS(=O)(=O)Nc1ccc(-c2cc(NC(=O)C3CC3)nc3[nH]ccc23)cc1Cl [Example 63, N-(4-(3-chloro-4-(propylsulfonamido)phenyl)-1H-pyrrolo[2,3-b]pyridin-6-yl)cyclopropanecarboxamide] | 20 to 200 |
| CCS(=O)(=O)Nc1ccc(-c2cc(NC(=O)C3CC3)nc3[nH]ccc23)cc1C [Example 64, N-(4-(4-(ethylsulfonamido)-3-methylphenyl)-1H-pyrrolo[2,3-b]pyridin-6-yl)cyclopropanecarboxamide] | < 20 |
| CCCS(=O)(=O)Nc1ccc(-c2cc(NC(=O)C3CC3)nc3[nH]ccc23)cc1C [Example 65, N-(4-(3-methyl-4-(propylsulfonamido)phenyl)-1H-pyrrolo[2,3-b]pyridin-6-yl)cyclopropanecarboxamide] | < 20 |
| O=C(Nc1cc(-c2ccc(NS(=O)(=O)C3CCCCC3)c(F)c2)c2cc[nH]c2n1)C1CC1 [Example 68, N-(4-(4-(cyclohexanesulfonamido)-3-fluorophenyl)-1H-pyrrolo[2,3-b]pyridin-6-yl)cyclopropanecarboxamide] | < 20 |
| O=C(Nc1cc(-c2ccc(NS(=O)(=O)C3CC3)c(F)c2)c2cc[nH]c2n1)C1CC1 [Example 69, N-(4-(4-(cyclopropanesulfonamido)-3-fluorophenyl)-1H-pyrrolo[2,3-b]pyridin-6-yl)cyclopropanecarboxamide] | < 20 |
| O=C(Nc1cc(-c2ccc(NS(=O)(=O)CC3CCOC3)c(F)c2)c2cc[nH]c2n1)C1CC1 (stereo not shown) [Example 72, N-(4-(3-fluoro-4-(((tetrahydrofuran-3-yl)methyl)sulfonamido)phenyl)-1H-pyrrolo[2,3-b]pyridin-6-yl)cyclopropanecarboxamide] | < 20 |
| O=C(Nc1cc(-c2ccc(NS(=O)(=O)CC3CCOCC3)c(F)c2)c2cc[nH]c2n1)C1CC1 [Example 73, N-(4-(3-fluoro-4-(((tetrahydro-2H-pyran-4-yl)methyl)sulfonamido)phenyl)-1H-pyrrolo[2,3-b]pyridin-6-yl)cyclopropanecarboxamide] | < 20 |
| CCS(=O)(=O)Nc1ccc(-c2cc(NC(=O)C3CC3)nc3[nH]c(C)cc23)cc1 [Example 74, N-(4-(4-(ethylsulfonamido)phenyl)-2-methyl-1H-pyrrolo[2,3-b]pyridin-6-yl)cyclopropanecarboxamide] | > 200 |
| O=C(Nc1cc(-c2ccc(NS(=O)(=O)CCCF)c(F)c2)c2cc[nH]c2n1)C1CC1 [Example 76, N-(4-(3-fluoro-4-((3-fluoropropyl)sulfonamido)phenyl)-1H-pyrrolo[2,3-b]pyridin-6-yl)cyclopropanecarboxamide] | < 20 |
| N#CCCCS(=O)(=O)Nc1ccc(-c2cc(NC(=O)C3CC3)nc3[nH]ccc23)cc1F [Example 77, N-(4-(4-((3-cyanopropyl)sulfonamido)-3-fluorophenyl)-1H-pyrrolo[2,3-b]pyridin-6-yl)cyclopropanecarboxamide] | < 20 |
| CCS(=O)(=O)Nc1cc(F)c(-c2cc(NC(=O)C3CC3)nc3[nH]ccc23)cc1F [Example 83, N-(4-(4-(ethylsulfonamido)-2,5-difluorophenyl)-1H-pyrrolo[2,3-b]pyridin-6-yl)cyclopropanecarboxamide] | < 20 |
| CCCS(=O)(=O)Nc1cc(F)c(-c2cc(NC(=O)C3CC3)nc3[nH]ccc23)cc1F [Example 84, N-(4-(2,5-difluoro-4-(propylsulfonamido)phenyl)-1H-pyrrolo[2,3-b]pyridin-6-yl)cyclopropanecarboxamide] | < 20 |
| N#CC1(CS(=O)(=O)Nc2ccc(-c3cc(NC(=O)C4CC4)nc4[nH]ccc34)cc2F)CC1 [Example 85, N-(4-(4-(((1-cyanocyclopropyl)methyl)sulfonamido)-3-fluorophenyl)-1H-pyrrolo[2,3-b]pyridin-6-yl)cyclopropanecarboxamide] | < 20 |
| N#CCC1(CS(=O)(=O)Nc2ccc(-c3cc(NC(=O)C4CC4)nc4[nH]ccc34)cc2F)CC1 [Example 86, N-(4-(4-(((1-(cyanomethyl)cyclopropyl)methyl)sulfonamido)-3-fluorophenyl)-1H-pyrrolo[2,3-b]pyridin-6-yl)cyclopropanecarboxamide] | < 20 |
| N#CC1(CS(=O)(=O)Nc2ccc(-c3cc(NC(=O)C4CC4)nc4[nH]ccc34)cc2)CC1 [Example 88, N-(4-(4-(((1-cyanocyclopropyl)methyl)sulfonamido)phenyl)-1H-pyrrolo[2,3-b]pyridin-6-yl)cyclopropanecarboxamide] | < 20 |
| N#CCC1(CS(=O)(=O)Nc2ccc(-c3cc(NC(=O)C4CC4)nc4[nH]ccc34)cc2)CC1 [Example 89, N-(4-(4-(((1-(cyanomethyl)cyclopropyl)methyl)sulfonamido)phenyl)-1H-pyrrolo[2,3-b]pyridin-6-yl)cyclopropanecarboxamide] | < 20 |
| Cc1cc(NS(=O)(=O)C2CC2)ccc1-c1cc(NC(=O)C2CC2)nc2[nH]ccc12 [Example 90, N-(4-(4-(cyclopropanesulfonamido)-2-methylphenyl)-1H-pyrrolo[2,3-b]pyridin-6-yl)cyclopropanecarboxamide] | 20 to 200 |
| Cc1cc(NS(=O)(=O)C2CCC2)ccc1-c1cc(NC(=O)C2CC2)nc2[nH]ccc12 [Example 91, N-(4-(4-(cyclobutanesulfonamido)-2-methylphenyl)-1H-pyrrolo[2,3-b]pyridin-6-yl)cyclopropanecarboxamide] | 20 to 200 |

Reference: US11524968B2, “Heterocyclic compound as a protein kinase inhibitor” (HK inno.N Corporation, priority 2017, dated 2022)
